From patent publication US12448389B2, “BRM targeting compounds and associated methods of use” (Prelude Therapeutics Incorporated, priority 2020, dated 2025)

Key:
SMARCA2-HiBiT = target: T1, SMARCA2-HiBiT (Homo sapiens, UniProt P51531); experiment: SMARCA2 HiBiT degradation assay in HeLa cells; format: cell-based; conditions: 18 hours incubation; for DC50: read-out: HeLa_HiBit-SM2 DC50; for Dmax: HeLa, read-out: HeLa-HiBit-SM2 Dmax (%)
T1 construct: SMARCA2-HiBiT knock-in Hela monoclonal cell (CS302366); host or cells: HeLa monoclonal knock-in line (CRISPR HiBiT knock-in at the endogenous locus, heterozygous)
Outline: (§1)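 HeLa monoclonal lines with heterozygous HiBiT knock-in were seeded at 2500 cells/well in EMEM with 10% FBS and treated with compound for 18 h at 37 °C. Remaining tagged protein was measured by Nano-Glo HiBiT lytic luminescence after 30–60 min at RT, and values came from curve fitting.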

SMARCA4-HiBiT = target: T2, SMARCA4-HiBiT (Homo sapiens, UniProt P51532); experiment: SMARCA4 HiBiT degradation assay in HeLa cells; format: cell-based; conditions: 18 hours incubation; for DC50: read-out: HeLa-HiBit-SM4 DC50; for Dmax: HeLa, read-out: HeLa-HiBit-SM4 Dmax (%)
T2 construct: SMARCA4-HiBiT knock-in Hela monoclonal cell (CS3023226); host or cells: HeLa monoclonal knock-in line (CRISPR HiBiT knock-in at the endogenous locus, heterozygous)
Outline: as §1

T2 sequence (P51532 whole entry): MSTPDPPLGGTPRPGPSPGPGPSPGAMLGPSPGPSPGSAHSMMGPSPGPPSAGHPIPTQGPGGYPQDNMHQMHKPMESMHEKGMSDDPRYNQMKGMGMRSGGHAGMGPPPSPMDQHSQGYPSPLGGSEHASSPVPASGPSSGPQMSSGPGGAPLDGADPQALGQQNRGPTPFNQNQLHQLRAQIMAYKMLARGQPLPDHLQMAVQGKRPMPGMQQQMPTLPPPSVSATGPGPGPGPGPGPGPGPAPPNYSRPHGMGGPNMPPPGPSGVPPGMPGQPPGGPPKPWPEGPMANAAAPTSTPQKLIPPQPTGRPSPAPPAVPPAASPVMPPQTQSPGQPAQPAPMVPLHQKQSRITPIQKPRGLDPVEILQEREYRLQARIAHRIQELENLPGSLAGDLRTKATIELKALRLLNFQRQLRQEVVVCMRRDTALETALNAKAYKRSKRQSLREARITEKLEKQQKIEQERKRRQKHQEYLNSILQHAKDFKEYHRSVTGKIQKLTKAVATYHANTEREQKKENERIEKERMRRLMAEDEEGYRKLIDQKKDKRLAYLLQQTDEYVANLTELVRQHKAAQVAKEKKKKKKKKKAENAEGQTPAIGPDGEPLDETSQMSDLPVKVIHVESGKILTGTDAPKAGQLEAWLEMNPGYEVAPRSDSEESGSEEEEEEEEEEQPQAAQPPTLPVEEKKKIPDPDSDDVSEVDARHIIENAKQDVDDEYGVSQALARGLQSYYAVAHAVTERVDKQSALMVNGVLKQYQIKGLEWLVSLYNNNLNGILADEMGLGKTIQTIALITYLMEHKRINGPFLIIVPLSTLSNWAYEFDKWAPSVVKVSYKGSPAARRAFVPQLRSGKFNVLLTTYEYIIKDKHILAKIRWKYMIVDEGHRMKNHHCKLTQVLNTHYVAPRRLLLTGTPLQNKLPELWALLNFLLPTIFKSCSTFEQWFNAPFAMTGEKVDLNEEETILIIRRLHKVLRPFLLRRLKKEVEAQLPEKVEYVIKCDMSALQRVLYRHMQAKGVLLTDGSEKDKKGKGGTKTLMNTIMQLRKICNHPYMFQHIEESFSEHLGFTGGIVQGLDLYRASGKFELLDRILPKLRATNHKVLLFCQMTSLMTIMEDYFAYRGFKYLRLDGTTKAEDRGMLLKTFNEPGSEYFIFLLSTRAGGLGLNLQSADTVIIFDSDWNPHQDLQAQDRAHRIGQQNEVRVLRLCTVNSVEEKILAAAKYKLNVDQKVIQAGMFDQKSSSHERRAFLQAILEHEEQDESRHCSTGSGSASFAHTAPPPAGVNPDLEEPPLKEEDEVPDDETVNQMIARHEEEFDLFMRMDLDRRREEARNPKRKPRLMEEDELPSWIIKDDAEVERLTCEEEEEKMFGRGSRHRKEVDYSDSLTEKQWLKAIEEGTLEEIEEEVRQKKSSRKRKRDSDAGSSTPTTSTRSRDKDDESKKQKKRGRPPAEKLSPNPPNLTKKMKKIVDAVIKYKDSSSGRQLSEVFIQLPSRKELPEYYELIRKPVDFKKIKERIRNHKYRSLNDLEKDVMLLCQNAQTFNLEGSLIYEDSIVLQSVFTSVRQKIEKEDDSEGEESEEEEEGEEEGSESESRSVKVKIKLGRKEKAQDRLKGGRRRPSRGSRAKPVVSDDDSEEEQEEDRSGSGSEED
T1 sequence (P51531 whole entry): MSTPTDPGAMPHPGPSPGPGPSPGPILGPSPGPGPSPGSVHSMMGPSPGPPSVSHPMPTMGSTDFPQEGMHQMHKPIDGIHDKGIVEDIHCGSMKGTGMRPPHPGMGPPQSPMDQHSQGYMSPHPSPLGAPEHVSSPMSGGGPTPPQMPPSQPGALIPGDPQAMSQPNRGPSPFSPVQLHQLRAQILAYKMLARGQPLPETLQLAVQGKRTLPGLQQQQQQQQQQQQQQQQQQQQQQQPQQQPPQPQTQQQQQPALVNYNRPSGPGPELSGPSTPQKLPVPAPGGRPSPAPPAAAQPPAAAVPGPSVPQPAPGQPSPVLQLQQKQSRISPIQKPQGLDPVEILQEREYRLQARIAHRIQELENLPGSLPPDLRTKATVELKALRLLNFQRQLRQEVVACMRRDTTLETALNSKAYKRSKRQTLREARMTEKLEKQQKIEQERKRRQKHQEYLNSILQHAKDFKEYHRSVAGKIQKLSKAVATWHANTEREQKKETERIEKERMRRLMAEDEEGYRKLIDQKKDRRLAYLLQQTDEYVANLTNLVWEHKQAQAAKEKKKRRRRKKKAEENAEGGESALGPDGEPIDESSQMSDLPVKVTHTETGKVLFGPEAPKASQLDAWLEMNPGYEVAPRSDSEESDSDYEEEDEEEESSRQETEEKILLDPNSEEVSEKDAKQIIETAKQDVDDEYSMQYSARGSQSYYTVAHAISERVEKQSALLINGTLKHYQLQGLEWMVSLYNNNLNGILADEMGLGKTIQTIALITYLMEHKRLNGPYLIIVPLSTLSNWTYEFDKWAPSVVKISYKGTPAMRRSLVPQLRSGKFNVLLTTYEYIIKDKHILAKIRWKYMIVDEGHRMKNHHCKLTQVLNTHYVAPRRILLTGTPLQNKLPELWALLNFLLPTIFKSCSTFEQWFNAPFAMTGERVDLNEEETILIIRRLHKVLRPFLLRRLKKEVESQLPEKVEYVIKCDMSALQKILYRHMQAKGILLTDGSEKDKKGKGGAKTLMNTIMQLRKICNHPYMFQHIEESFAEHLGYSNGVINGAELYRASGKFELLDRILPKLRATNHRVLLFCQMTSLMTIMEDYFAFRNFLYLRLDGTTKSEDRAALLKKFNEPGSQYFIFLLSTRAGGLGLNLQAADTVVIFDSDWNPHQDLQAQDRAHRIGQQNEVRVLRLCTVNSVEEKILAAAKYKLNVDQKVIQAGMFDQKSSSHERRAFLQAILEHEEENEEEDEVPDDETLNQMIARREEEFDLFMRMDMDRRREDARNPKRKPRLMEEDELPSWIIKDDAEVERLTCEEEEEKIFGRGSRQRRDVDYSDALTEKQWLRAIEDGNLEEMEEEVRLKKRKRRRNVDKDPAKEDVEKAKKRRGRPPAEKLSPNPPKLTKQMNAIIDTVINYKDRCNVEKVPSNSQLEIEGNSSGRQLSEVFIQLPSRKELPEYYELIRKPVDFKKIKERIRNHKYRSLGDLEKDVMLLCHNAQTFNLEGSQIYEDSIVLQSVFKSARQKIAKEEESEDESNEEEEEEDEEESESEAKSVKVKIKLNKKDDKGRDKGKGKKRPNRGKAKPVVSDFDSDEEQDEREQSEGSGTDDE

DC50 (SMARCA2-HiBiT) [nM]	Dmax (SMARCA2-HiBiT) [%]	DC50 (SMARCA4-HiBiT) [nM]	Dmax (SMARCA4-HiBiT) [%]	SMILES
< 10	> 85	< 10	> 85	O=C1CCC(N2C(=O)c3ccc(N4CCC(CN5CCC(CN6CCN7c8cc(-c9ccccc9O)nnc8NC[C@H]7C6)CC5)C4)cc3C2=O)C(=O)N1 (stereo partly drawn) [Example 225, 2-(2,6-dioxopiperidin-3-yl)-5-(3-((4-(((S)-2-(2-hydroxyphenyl)-5,6,6a,7,9,10-hexahydro-8H-pyrazino[1′,2′:4,5]pyrazino[2,3-c]pyridazin-8-yl)methyl)piperidin-1-yl)methyl)pyrrolidin-1-yl)isoindoline-1,3-dione]
< 10	> 85	10 to 100	50 to 75	O=C1CCC(N2C(=O)c3ccc(N4CC(CN5CCC(C(=O)N6CCN7c8cc(-c9ccccc9O)nnc8NC[C@H]7C6)CC5)C4)cc3C2=O)C(=O)N1 (stereo partly drawn) [Example 86, 2-(2,6-dioxopiperidin-3-yl)-5-(3-((4-((S)-2-(2-hydroxyphenyl)-6,6a,7,8,9,10-hexahydro-5H-pyrazino[1′,2′:4,5]pyrazino[2,3-c]pyridazine-8-carbonyl)piperidin-1-yl)methyl)azetidin-1-yl)isoindoline-1,3-dione]
< 10	75 to 85	< 10	50 to 75	O=C1CCC(N2C(=O)c3ccc(N4CC[C@H](CN5CCC(CN6CCN7c8cc(-c9ccccc9O)nnc8NC[C@H]7C6)CC5)[C@H](F)C4)cc3C2=O)C(=O)N1 (stereo partly drawn) [Example 185, 2-(2,6-dioxopiperidin-3-yl)-5-[(3S,4R)-3-fluoro-4-[[4-[[(10S)-4-(2-hydroxyphenyl)-1,5,6,8,12-pentazatricyclo[8.4.0.02,7]tetradeca-2(7),3,5-trien-12-yl]methyl]piperidin-1-yl]methyl]piperidin-1-yl]isoindole-1,3-dione]
< 10	50 to 75	100 to 1000	≤ 50	CN(CCN1CCC(C(=O)N2CCN3c4cc(-c5ccccc5O)nnc4NC[C@H]3C2)CC1)c1ccc2c(c1)C(=O)N(C1CCC(=O)NC1=O)C2=O (stereo partly drawn) [Example 222, 2-(2,6-dioxopiperidin-3-yl)-5-((2-(4-((S)-2-(2-hydroxyphenyl)-6,6a,7,8,9,10-hexahydro-5H-pyrazino[1′,2′:4,5]pyrazino[2,3-c]pyridazine-8-carbonyl)piperidin-1-yl)ethyl)(methyl)amino) isoindoline-1,3-dione]
< 10	> 85	< 10	> 85	CC1(C)CN(CC2CCN(c3ccc4c(c3)C(=O)N(C3CCC(=O)NC3=O)C4=O)CC2)CCC1CN1CCN2c3cc(-c4ccccc4O)nnc3NC[C@H]2C1 (stereo partly drawn) [Example 257, 2-(2,6-dioxopiperidin-3-yl)-5-(4-((4-(((S)-2-(2-hydroxyphenyl)-5,6,6a,7,9,10-hexahydro-8H-pyrazino[1′,2′:4,5]pyrazino[2,3-c]pyridazin-8-yl)methyl)-3,3-dimethylpiperidin-1-yl)methyl)piperidin-1-yl)isoindoline-1,3-dione]
< 10	50 to 75	10 to 100	≤ 50	O=C1CCC(N2C(=O)c3ccc(NCCN4CCN(C(=O)N5CCN6c7cc(-c8ccccc8O)nnc7NC[C@H]6C5)CC4)cc3C2=O)C(=O)N1 (stereo partly drawn) [Example 219, 2-(2,6-dioxopiperidin-3-yl)-5-((2-(4-((S)-2-(2-hydroxyphenyl)-6,6a,7,8,9,10-hexahydro-511-pyrazino[1′,2′:4,5]pyrazino[2,3-c]pyridazine-8-carbonyl)piperazin-1-yl)ethyl)amino) isoindoline-1,3-dione]
< 10	50 to 75	10 to 100	≤ 50	O=C1CCC(N2Cc3ccc(N4CCC(CN5C[C@@H]6[C@H](C5)[C@H]6C(=O)N5CCN6c7cc(-c8ccccc8O)nnc7NC[C@H]6C5)CC4)cc3C2=O)C(=O)N1 (stereo partly drawn) [Example 96, 3-(6-(4-(((1R,5S,6r)-6-((S)-2-(2-hydroxyphenyl)-6,6a,7,8,9,10-hexahydro-5H-pyrazino[1′,2′:4,5]pyrazino[2,3-c]pyridazine-8-carbonyl)-3-azabicyclo[3.1.0]hexan-3-yl)methyl)piperidin-1-yl)-1-oxoisoindolin-2-yl)piperidine-2,6-dione]
< 10	≤ 50	10 to 100	50 to 75	O=C1CCC(N2Cc3ccc(N4CCOC(CN5CCC(C(=O)N6CCN7c8cc(-c9ccccc9O)nnc8NC[C@H]7C6)CC5)C4)cc3C2=O)C(=O)N1 (stereo partly drawn) [Example 113, 3-(6-(2-((4-((S)-2-(2-hydroxyphenyl)-6,6a,7,8,9,10-hexahydro-5H-pyrazino[1′,2′:4,5]pyrazino[2,3-c]pyridazine-8-carbonyl)piperidin-1-yl)methyl)morpholino)-1-oxoisoindolin-2-yl)piperidine-2,6-dione]
< 10	> 85	10 to 100	75 to 85	O=C1CCC(N2Cc3ccc(N4CCN(CCCN5CCC(CN6CCN7c8cc(-c9ccccc9O)nnc8NC[C@H]7C6)CC5)CC4)cc3C2=O)C(=O)N1 (stereo partly drawn) [Example 121, 3-(6-(4-(3-(4-(((S)-2-(2-hydroxyphenyl)-5,6,6a,7,9,10-hexahydro-8H-pyrazino[1′,2′:4,5]pyrazino[2,3-c]pyridazin-8-yl)methyl)piperidin-1-yl)propyl)piperazin-1-yl)-1-oxoisoindolin-2-yl)piperidine-2,6-dione]
< 10	75 to 85	< 10	50 to 75	O=C1CCC(N2Cc3cc(N4CCO[C@H](CN5C[C@@H]6[C@H](C5)[C@H]6CN5CCN6c7cc(-c8ccccc8O)nnc7NC[C@H]6C5)C4)ccc3C2=O)C(=O)N1 (stereo partly drawn) [Example 268, 3-(5-((R)-2-(((1R,5S,6S)-6-(((S)-2-(2-hydroxyphenyl)-5,6,6a,7,9,10-hexahydro-8H-pyrazino[1′,2′:4,5]pyrazino[2,3-c]pyridazin-8-yl)methyl)-3-azabicyclo[3.1.0]hexan-3-yl)methyl)morpholino)-1-oxoisoindolin-2-yl)piperidine-2,6-dione]
< 10	> 85	< 10	50 to 75	O=C1CCC(N2C(=O)c3ccc(N4CCN(CCN5CCO[C@H](CN6CCN7c8cc(-c9ccccc9O)nnc8NC[C@H]7C6)C5)CC4)cc3C2=O)C(=O)N1 (stereo partly drawn) [Example 159, 2-(2,6-dioxopiperidin-3-yl)-5-(4-(2-((R)-2-(((S)-2-(2-hydroxyphenyl)-5,6,6a,7,9,10-hexahydro-8H-pyrazino[1′,2′:4,5]pyrazino[2,3-c]pyridazin-8-yl)methyl)morpholino)ethyl)piperazin-1-yl)isoindoline-1,3-dione]
< 10	> 85	10 to 100	50 to 75	CC1(CN2C[C@@H]3[C@@H](CN4CCN5c6cc(-c7ccccc7O)nnc6NC[C@H]5C4)[C@@H]3C2)CCN(c2ccc3c(c2)C(=O)N(C2CCC(=O)NC2=O)C3=O)CC1 (stereo partly drawn) [Example 91, 2-(2,6-dioxopiperidin-3-yl)-5-(4-(((1R,5S,6r)-6-(((S)-2-(2-hydroxyphenyl)-5,6,6a,7,9,10-hexahydro-8H-pyrazino[1′,2′:4,5]pyrazino[2,3-c]pyridazin-8-yl)methyl)-3-azabicyclo[3.1.0]hexan-3-yl)methyl)-4-methylpiperidin-1-yl)isoindoline-1,3-dione]
< 10	50 to 75	< 10	50 to 75	CC1CN(CCCC2CCN(c3cccc4c3C(=O)N(C3CCC(=O)NC3=O)C4=O)CC2)CCC1N1CCN2c3cc(-c4ccccc4O)nnc3NC[C@H]2C1 (stereo partly drawn) [Example 124, 2-(2,6-dioxopiperidin-3-yl)-4-(4-(3-(4-((S)-2-(2-hydroxyphenyl)-5,6,6a,7,9,10-hexahydro-811-pyrazino[1′,2′:4,5]pyrazino[2,3-c]pyridazin-8-yl)-3-methylpiperidin-1-yl)propyl)piperidin-1-yl) isoindoline-1,3-dione]
< 10	> 85	< 10	75 to 85	C[C@H]1CN(CC2CCN(c3ccc4c(c3)C(=O)N(C3CCC(=O)NC3=O)C4)CC2)CCN1C(=O)N1CCN2c3cc(-c4ccccc4O)nnc3NC[C@H]2C1 (stereo partly drawn) [Example 112, 3-(6-(4-(((S)-4-((S)-2-(2-hydroxyphenyl)-6,6a,7,8,9,10-hexahydro-5H-pyrazino[1′,2′:4,5]pyrazino[2,3-c]pyridazine-8-carbonyl)-3-methylpiperazin-1-yl)methyl)piperidin-1-yl)-1-oxoisoindolin-2-yl)piperidine-2,6-dione]
< 10	> 85	< 10	> 85	C[C@@H]1C[C@H](CN2CCC(CN3CCN4c5cc(-c6ccccc6O)nnc5NC[C@H]4C3)CC2)CCN1c1cc2c(cc1F)C(=O)N(C1CCC(=O)NC1=O)C2=O (stereo partly drawn) [Example 174, 2-(2,6-dioxopiperidin-3-yl)-5-fluoro-6-[(2R,4R)-4-[[4-[[(10S)-4-(2-hydroxyphenyl)-1,5,6,8,12-pentazatricyclo[8.4.0.02,7]tetradeca-2,4,6-trien-12-yl]methyl]piperidin-1-yl]methyl]-2-methylpiperidin-1-yl] isoindole-1,3-dione]
< 10	> 85	< 10	> 85	CCC1CN(CC2CCN(c3ccc4c(c3)C(=O)N(C3CCC(=O)NC3=O)C4)CC2)CCN1C(=O)N1CCN2c3cc(-c4ccccc4O)nnc3NC[C@H]2C1 (stereo partly drawn) [Example 270, 3-(6-(4-((3-ethyl-4-((S)-2-(2-hydroxyphenyl)-6,6a,7,8,9,10-hexahydro-5H-pyrazino[1′,2′:4,5]pyrazino[2,3-c]pyridazine-8-carbonyl)piperazin-1-yl)methyl)piperidin-1-yl)-1-oxoisoindolin-2-yl)piperidine-2,6-dione]
